In the experiment the target is bovine cerebral TPK1 (Bos taurus, UniProt A0A059UE90). Kind of experiment: Inhibitory activity against P-GS1 phosphorylation by bovine cerebral TPK1. It counts as biochemical. As to conditions: P-GS1 phosphorylation, 41.7 μM [γ-32P] ATP, 25° C., 2 hours; read-out: IC50. Here is the method:
Inhibitory Activity of the Medicament of the Present Invention Against P-GS1 Phosphorylation by Bovine Cerebral TPK1 […] The phosphorylation was started by adding ATP, and the reaction was conducted at 25° C. for 2 hours, and then stopped by adding 21% perchloric acid on ice cooling. The reaction mixture was centrifuged at 12,000 rpm for 5 minutes and adsorbed on P81 paper (Whatmann), and then the paper was washed four times with 75 mM phosphoric acid, three times with water and once with acetone. The paper was dried, and the residual radioactivity was measured using a liquid scintillation counter.
bovine cerebral TPK1, sequence (A0A059UE90 1-419): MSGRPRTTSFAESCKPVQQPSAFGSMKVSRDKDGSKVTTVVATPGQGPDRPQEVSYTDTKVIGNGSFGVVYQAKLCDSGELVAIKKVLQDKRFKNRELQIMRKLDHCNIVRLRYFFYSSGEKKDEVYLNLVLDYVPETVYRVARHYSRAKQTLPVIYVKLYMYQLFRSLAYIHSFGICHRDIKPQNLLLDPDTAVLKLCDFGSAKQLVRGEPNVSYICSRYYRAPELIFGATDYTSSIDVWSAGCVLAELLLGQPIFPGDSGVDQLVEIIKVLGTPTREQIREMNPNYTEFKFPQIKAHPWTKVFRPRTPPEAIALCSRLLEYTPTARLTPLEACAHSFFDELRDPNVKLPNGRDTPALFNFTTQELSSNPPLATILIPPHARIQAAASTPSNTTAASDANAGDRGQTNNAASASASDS
As for `Cn1c(OC[C@@H]2CCN(c3ccccc3)C2)nc(-c2ccncc2F)cc1=O` [Compound No. 2.211, 6-(3-Fluoro-pyridin-4-yl)-3-methyl-2-[(3R)-1-phenyl-pyrrolidin-3-ylmethoxy]-3H-pyrimidin-4-one], the IC50 came to 658 nM.

For the compound `CN1CCN(Cc2ccc([C@H]3CC[C@@H](Oc4nc(-c5ccncn5)cc(=O)n4C)CC3)cc2)CC1` [Compound No. 1.904, 1-Methyl-2-{cis-4-[4-(4-methyl-piperazin-1-ylmethyl)phenyl]cyclohexyloxy}-1H-[4,4′] bipyrimidinyl-6-one], the IC50 turned out to be 30.3 nM.

As to `Cn1c(OCC2CCN(c3ccc(CN4CCCCC4)cc3)CC2)nc(-c2ccncc2F)cc1=O` [1.234, 6-(3-Fluoro-pyridin-4-yl)-3-methyl-2-[1-(4-piperidin-1-ylmethyl-phenyl)piperidin-4-ylmethoxy]-3H-pyrimidin-4-one], the IC50 stood at 15.6 nM.

Turning to `Cn1c(OC2CCN(c3ccc(N4CCN(C(=O)OC(C)(C)C)CC4)cc3)CC2)nc(-c2ccncn2)cc1=O` [1.211, tert-Butyl 4-{4-[4-(1-methyl-6-oxo-1,6-dihydro-[4,4′]bipyrimidinyl-2-yloxy)piperidin-1-yl]phenyl}piperazine-1-carboxylate], the IC50 was 977 nM.

For `Cn1c(OC2CCN(c3ccc(CN4CCN(C(=O)OC(C)(C)C)CC4)cc3)CC2)nc(-c2ccncn2)cc1=O` [Compound No. 1.201, tert-Butyl 4-{4-[4-(1-methyl-6-oxo-1,6-dihydro-[4,4′]bipyrimidinyl-2-yloxy)piperidin-1-yl]benzyl}piperazine-1-carboxylate], the IC50 was determined as 19.1 nM.

Regarding `Cn1c(OC2CCN(c3cccc(CN4CCOCC4)c3)CC2)nc(-c2ccncn2)cc1=O` [1.221, 1-Methyl-2-[1-(3-morpholin-4-ylmethyl-phenyl)piperidin-4-yloxy]-1H-[4,4′]bipyrimidinyl-6-one], the IC50 was determined as 31.5 nM.

For the compound `Cn1c(OC2CCN(c3ccc(CN4CCCCC4)cc3)CC2)nc(-c2ccncn2)cc1=O` [1.214, 1-Methyl-2-[1-(4-piperidin-1-ylmethyl-phenyl)piperidin-4-yloxy]-1H-[4,4′]bipyrimidinyl-6-one], the IC50 amounted to 16.1 nM.

In the case of `Cn1c(OC2CCN(c3ccc4c(c3)CN(Cc3ccccc3)C4)CC2)nc(-c2ccncn2)cc1=O` [1.227, 2-[1-(2-Benzyl-2,3-dihydro-1H-isoindol-5-yl)piperidin-4-yloxy]-1-methyl-1H-[4,4′]bipyrimidinyl-6-one], the IC50 worked out at 16 nM.

On to `Cn1c(OC2CCN(c3ccc(CN4CCCC4=O)cc3)CC2)nc(-c2ccncc2F)cc1=O` [1.218, 6-(3-Fluoro-pyridin-4-yl)-3-methyl-2-{1-[4-(2-oxo-pyrrolidin-1-ylmethyl)phenyl]piperidin-4-yloxy}-3H-pyrimidin-4-one], for which the IC50 amounted to 153 nM.

As for `Cn1c(OC2CCN(c3ccccc3CN3CCCCC3)CC2)nc(-c2ccncn2)cc1=O` [1.303, 1-Methyl-2-[1-(2-piperidin-1-ylmethyl-phenyl)piperidin-4-yloxy]-1H-[4,4′]bipyrimidinyl-6-one], the IC50 turned out to be 51.2 nM.

Consider `Cn1c(OC2CCCN(c3ccccn3)C2)nc(-c2ccncn2)cc1=O` (stereo not drawn) [1.108, 1-Methyl-2-(1-pyridin-2-yl-piperidin-3-yloxy)-1H-[4,4′]bipyrimidinyl-6-one], for which the IC50 was determined as 11.7 nM.

With `Cn1c(OCCSc2ccccc2)nc(-c2ccncc2)cc1=O` [1.806, 3-Methyl-2-(2-phenylsulfanyl-ethoxy)-6-pyridin-4-yl-3H-pyrimidin-4-one], the IC50 turned out to be 55 nM.

For the compound `Cn1c(OC2CCN(CCC3CCNCC3)CC2)nc(-c2ccncn2)cc1=O` [Compound No. 1.501, 1-Methyl-2-[1-(2-piperidin-4-yl-ethyl)piperidin-4-yloxy]-1H-[4,4′] bipyrimidinyl-6-one], the IC50 amounted to 69 nM.

Take `CC(=O)N1CCN(Cc2ccc(N3CCC(Oc4nc(-c5ccncn5)cc(=O)n4C)CC3)cc2)CC1` [1.212, 2-{1-[4-(4-Acetyl-piperazin-1-ylmethyl)phenyl]piperidn-4-yloxy}-1-methyl-1H-[4,4′]bipyrimidinyl-6-one]: the IC50 was 64.9 nM.

In the case of `Cn1c(OC[C@H]2CCCN2c2ccc(F)cc2)nc(-c2ccncn2)cc1=O` [2.202, 2-[(2R)-1-(4-Fluoro-phenyl)pyrrolidin-2-ylmethoxy]-1-methyl-1H-[4,4′]bipyrimidinyl-6-one], the IC50 amounted to 158 nM.

Regarding `Cn1c(OC[C@H]2CCN(c3ccsc3)C2)nc(-c2ccncn2)cc1=O` [Compound No. 2.207, 1-Methyl-2-[(3S)-1-(thiophen-3-yl)pyrrolidin-3-ylmethoxy]-1H-[4,4]′bipyrimidinyl-6-one], the IC50 is 307 nM.

Regarding `Cn1c(OC2CCN(c3ccccc3)CC2)nc(-c2ccncn2)cc1=O` [1.205, 1-Methyl-2-(1-phenyl-piperidin-4-yloxy)-1H-[4,4′]bipyrimidinyl-6-one], the IC50 was 37.6 nM.

In the case of `Cn1c(OC2CCN(c3cccc(CN4CCCCC4)c3)CC2)nc(-c2ccncn2)cc1=O` [1.223, 1-Methyl-2-[1-(3-piperidin-1-ylmethyl-phenyl)piperidin-4-yloxy]-1H-[4,4′]bipyrimidinyl-6-one], the IC50 turned out to be 9.4 nM.

Regarding `Cn1c(OCCOc2ccccc2)nc(-c2ccncc2)cc1=O` [1.805, 3-Methyl-2-(2-phenoxy-ethoxy)-6-pyridin-4-yl-3H-pyrimidin-4-one], the IC50 was 370 nM.

As for `Cn1c(OCCNc2ccccc2)nc(-c2ccncc2)cc1=O` [1.807, 3-Methyl-2-(2-phenylamino-ethoxy)-6-pyridin-4-yl-3H-pyrimidin-4-one], the IC50 is 99 nM.

As to `CN(C)Cc1ccc(N2CCC(Oc3nc(-c4ccncn4)cc(=O)n3C)CC2)cc1` [1.220, 2-[1-(4-Dimethylaminomethyl-phenyl)piperidin-4-yloxy]-1-methyl-1H-[4,4′]bipyrimidinyl-6-one], the IC50 stood at 21.2 nM.

For the compound `CN(C)Cc1ccccc1N1CCC(Oc2nc(-c3ccncn3)cc(=O)n2C)CC1` [1.305, 2-[1-(2-Dimethylaminomethyl-phenyl)piperidin-4-yloxy]-1-methyl-1H-[4,4′]bipyrimidinyl-6-one], the IC50 was 58.6 nM.

For `Cn1c(OC2CCN(c3ccc(N4CCNCC4)cc3)CC2)nc(-c2ccncn2)cc1=O` [1.208, 1-Methyl-2-[1-(4-piperazin-1-yl-phenyl)-piperidin-4-yloxy]-1H-[4,4′]bipyrimidinyl-6-one], the IC50 is 10.7 nM.

Regarding `COc1ccc(N2CCCC(Oc3nc(-c4ccncn4)cc(=O)n3C)C2)cc1` (stereo not drawn) [1.107, 2-[1-(4-Methoxy-phenyl)piperidin-3-yloxy]-1-methyl-1H-[4,4′]bipyrimidinyl-6-one], the IC50 worked out at 98.2 nM.

As to `CCCCCCc1ccc(Oc2nc(-c3ccncn3)cc(=O)n2C)cc1` [Compound No. 2.001, 2-(4-Hexylphenoxy)-1-methyl-1H[4,4′]bipyrimidinyl-6one], the IC50 was 429 nM.

Turning to `Cn1c(OC2CCN(c3ccc(CN4CCCCC4)cc3)C2)nc(-c2ccncn2)cc1=O` (stereo not drawn) [1.231, 1-Methyl-2-[1-(4-piperidin-1-ylmethyl-phenyl)pyrrolidin-3-yloxy]-1H-[4,4′]bipyrimidinyl-6-one], the IC50 stood at 12.8 nM.

Take `Cn1c(OC[C@@H]2CCCN2c2ccc(F)cc2)nc(-c2ccncc2F)cc1=O` [2.205, 2-[(2S)-1-(4-Fluoro-phenyl)pyrrolidin-2-ylmethoxy]-6-(3-fluoro-pyridin-4-yl)-3-methyl-3H-pyrimidin-4-one]: the IC50 came out at 18.4 nM.

These data come from US9006232B2, “Pyrimidone derivatives” (Mitsubishi Tanabe Pharma Corporation, priority 2009, dated 2015).
